Literature values, collected in US20030152643A1, “Combination of an alpha-adrenergic antagonist and a nitrogen oxide donor for treating female sexual dysfunctions” (priority 1998, published 2003).

Test system: erectile dysfunctions
Conditions: administration in men; Zorgniotti and Lizza 1994

N=C(N)NCCC[C@H](N)C(=O)O [L-arginine]
effect on erectile dysfunctions in men: favorable effect on erectile dysfunctions in certain cases
